We go through two compounds from patent US20040106124A1, “Methods for improving the treatment of major depression by genotyping for the gene for apolipoproteine e4 and for improving the terapeutic response of humans having major depression and carrying the gene for apolipoprotein e4” (priority 2001, published 2004).

The subject of data set [1] is patients 65 years of age and older with major depression. Description: Mini Mental State Examination (MMSE), cognition, in 8-week double-blind comparison. Conditions: for mean MMSE score, ε4 carriers compared with noncarriers: week 8, full cohort, analysis of covariance. Type of data set: in vivo, human. How it is done: (§1) A multi-center, randomized, double-blind, 8-week comparison of paroxetine and mirtazapine was performed for 246 nondemented, cognitively intact patients 65 years of age and older with major depression. All patients were genotyped at the apoE locus as discussed further below.
(§2) After an initial evaluation period, the mirtazapine patients started with a 15 mg dose per day. After two weeks of treatment (Day 14), patients' dosages were raised to 30 mg per day. […] Subjects who rate “Much Improved” or “Very Much Improved” on the CGI Scale I continued on the same dose they were receiving during the previous week.
(§3) For paroxetine, the dosing system was the same, except that the starting dosage was 20 mg per day, raised to 30 mg per day, and to a maximum of 40 mg per day.
This test represents a brief standardized method to grade cognitive mental status. The test assesses orientation, attention, immediate and short-term recall, language, and the ability to follow verbal and written commands. The lower the score, the lower the cognitive mental status.
To screen patients for the gene, genomic DNA was extracted from EDTA-treated whole blood using the Puregene DNA extraction kit (available from Gentra Systems). […] J. Psychiatr. 154:603-608, 1997. Genotypes were determined by two observers blind as to the clinical or neuropathological diagnosis.
All statistical analyses were performed using the SAS software package (available from SAS Institute). […] For remitter and responder analyses of clinical measures of depression, Cochran-Mantel-Haenszel statistics were used. For comparison of medication and genotype groups on baseline demographic measures, two-way analyses of variance were used.

For data set [2] the test system is unchanged. Kind of data set: Clinical Global Impression Scale (CGI) in 8-week double-blind comparison. Conditions: day 14; for CGI scores, ε4 carriers compared with those without an ε4 allele: interaction p=0.029. Type of data set: in vivo, human. The text has this:
Clinical Global Impression Scale (CGI) (Guy, W., ECDEU Assessment Manual for Psychopharmacology, DHEW Publication No. (ADM) 76-338, rev. 1976). The CGI scale is a global 7-point rating of the severity of the illness taking into account the preceding week (CGI-Severity) and a global 7-point rating of the clinical status of the subject since baseline (CGI-Change). A responder is defined as being “Much Improved” or “Very Much Improved”—having a CGI score of at least 2 according to CGI-Change. Thus, a higher CGI-Severity score corresponds to more severe depression whereas a higher CGI-Change score corresponds to lessened depression, or an improvement in alleviating the symptoms of depression.
(§4) J. Psychiatr. 154:603-608, 1997.
(§5) All statistical analyses were performed using the SAS software package (available from SAS Institute). For clinical measures of depression (HDRS-21, HDRS-17, GDS, and CGI), analyses of covariance were performed with baseline values as the covariate, and apoE genotype (ε4 allele carrier vs. non-carder) and medication (mirtazapine, paroxetine) as the predictors. For remitter and responder analyses of clinical measures of depression, Cochran-Mantel-Haenszel statistics were used. For comparison of medication and genotype groups on baseline demographic measures, two-way analyses of variance were used.

Data set [3] can be described thus: Plasma drug concentrations in 8-week double-blind comparison. The protocol:
as §1, §2, §3

Data set [4] has as its system patients 65 years of age and older with major depression. Kind of data set: Geriatric Depression Scale (GDS) in 8-week double-blind comparison. Type of data set: in vivo, human. As to conditions: for GDS scores, ε4 carriers compared with noncarriers / 50% reduction in GDS score, ε4 carriers compared with those without an ε4 allele / GDS scores, patients with an ε4 allele compared with those without: day 14; for GDS scores, ε4 carriers compared with noncarriers: Caucasian patients; for 50% reduction in GDS score, ε4 carriers compared with those without an ε4 allele / GDS scores, patients with an ε4 allele compared with those without / 50% reduction in GDS score, ε4 carriers compared with noncarriers: full cohort; for number of patients showing a 50% reduction in GDS, ε4 carriers compared with noncarriers / 50% reduction in GDS score, ε4 carriers compared with noncarriers: day 28; for number of patients showing a 50% reduction in GDS, ε4 carriers compared with noncarriers: Caucasian subjects. How it is done:
Geriatric Depression Scale (GDS) (Yesavage, J. A. et al., J. Psychiatr. Res. 17:37-49, 1983), a self-rating scale developed specifically for rating depression in the elderly. In the GDS, a lower rating signifies less depression. GDS 50% responders are defined as subjects with a decrease on a post-baseline assessment of at least 50% as compared to baseline.
as §4, §5

Data set [5] shares this test system. Kind of data set: Discontinuation due to adverse events in 8-week double-blind comparison. Type of data set: in vivo, human. How it is done:
as §5

For data set [6] the test system is unchanged. Kind of data set: Hamilton Depression Rating Scale (HDRS-17, HDRS-21) in 8-week double-blind comparison of paroxetine and mirtazapine. Conditions: for HDRS-21 scores, ε4 carriers compared with those without an ε4 allele: interaction p=0.033; for HDRS-17 scores, ε4 carriers compared with those without an ε4 allele: interaction p=0.036; for HDRS-21 50% responders: patients carrying an ε4 allele; for rate and onset of antidepressant response, mirtazapine compared with paroxetine: early weeks of treatment, summary of the example. In kind it is in vivo, human.
Excerpt: Hamilton Depression Rating Scale (HDRS; 17 and 21 item versions of a structured interview) (Hamilton, M., J. Neurol. Neurosurg. Psychiatr. 23:56-62, 1960; Hamilton, M., Br. J. Soc. Clin. Psychol. 6:278-296,1967). […] In other words, a lower rating in the HDRS scale signifies less depression. In contrast, HDRS remitters, which are those patients showing the least depression, are defined as subjects who have an HDRS-17 score of less than 7 at a post-baseline visit.
as §4, §5

Where [7] appears, read: day 14, patients with an ε4 allele, full cohort.
Setting [8] is: day 14, Caucasian patients, p=0.006.

On to `Fc1ccc([C@@H]2CCNC[C@H]2COc2ccc3c(c2)OCO3)cc1` [paroxetine], for which the “MMSE score, subjects with an ε4 allele compared with those without” value in data set [1] (Caucasian subjects, trend, p=0.05) is on record as “lower MMSE score”. Moreover, the “mean MMSE score, ε4 carriers compared with noncarriers” value in data set [1] is reported as “significantly lower”. For the same compound, the “CGI scores, ε4 carriers compared with noncarriers” value in data set [2] (Caucasian patients) is recorded as “no differences”. Moreover, the “CGI scores, ε4 carriers compared with those without an ε4 allele” value in data set [2] (full cohort) is “higher scores”. Besides, the “plasma drug concentrations, ε4 carriers compared with non-ε4 carriers” value in data set [3] (Caucasian subjects) is recorded as “no differences”. Further, the “plasma drug concentrations, ε4 carriers compared with non-ε4 carriers” value in data set [3] (full cohort) is reported as “no differences”. Further, in data set [4], the “GDS scores, ε4 carriers compared with noncarriers” value is recorded as “no effect”; the “50% reduction in GDS score, ε4 carriers compared with those without an ε4 allele” value is reported as “no difference”; the “GDS scores, patients with an ε4 allele compared with those without” value is reported as “no significant difference”; the “number of patients showing a 50% reduction in GDS, ε4 carriers compared with noncarriers” value is listed as “no significant effect”. Further, the “50% reduction in GDS score, ε4 carriers compared with noncarriers” value in data set [4] was “no effect”. Further, the “number of patients who discontinued due to adverse events, ε4 carriers compared with noncarriers” value in data set [5] (Caucasian subjects) is recorded as “no significant differences”. For the same compound, the “number of patients who discontinued due to adverse events, ε4 carriers compared with noncarriers” value in data set [5] (full cohort) was “no significant differences”. In addition, in data set [6] (day 14, Caucasian patients), the “HDRS scores, improvement of ε4 carriers compared with noncarriers” value is “less improvement”. Besides, in data set [6] (day 14, full cohort), the “HDRS-21 scores, ε4 carriers compared with those without an ε4 allele” value is recorded as “higher scores”; the “HDRS-17 scores, ε4 carriers compared with those without an ε4 allele” value is “higher scores”; the “HDRS-21 50% responders” value is recorded as “none”. For the same compound, in data set [6] (setting [7]), the “HDRS-17 50% responders (50% decrease in HDRS-17 score over baseline)” value is given as “none” and the HDRS-17 remitters result is “none”. Also, the “rate and onset of antidepressant response, mirtazapine compared with paroxetine” value in data set [6] was “slower onset of anti-depressant action”.

On to `CN1CCN2c3ncccc3Cc3ccccc3C2C1` (stereo not shown) [mirtazapine, 1,2,3,4,10,14b-hexahydro-2-methylpyrazino [2,1-a]pyrido[2,3-c]benzazepine], for which the “mean MMSE score, ε4 carriers compared with noncarriers” value in data set [1] was “no effect”. Moreover, the “CGI scores, ε4 carriers compared with noncarriers” value in data set [2] (Caucasian patients) is “significantly better”. Also, the “CGI scores, mirtazapine treated compared with paroxetine treated subjects” value in data set [2] (Caucasian patients, p=0.037) was “significantly better”. Besides, in data set [2] (full cohort), the “improvement in CGI scores, mirtazapine-treated compared with paroxetine-treated patients” value was “Significantly greater improvement” and the “CGI scores, ε4 carriers compared with those without an ε4 allele” value is recorded as “significantly lower scores”. Further, the “plasma drug concentrations, ε4 carriers compared with non-ε4 carriers” value in data set [3] (in vivo) is listed as “no differences”. Further, in data set [4], the “GDS scores, ε4 carriers compared with noncarriers” value was “significantly lower”; the “50% reduction in GDS score, ε4 carriers compared with those without an ε4 allele” value is on record as “significantly more likely”; the “GDS scores, patients with an ε4 allele compared with those without” value is given as “large decrease”; the “number of patients showing a 50% reduction in GDS, ε4 carriers compared with noncarriers” value is “significantly more”. In data set [4], the “50% reduction in GDS score, ε4 carriers compared with noncarriers” value is on record as “significantly more”. Moreover, the “number of patients who discontinued due to adverse events, ε4 carriers compared with noncarriers” value in data set [5] (in vivo) is “no significant differences”. Also, the “improvement in HDRS-17 scores, mirtazapine-treated compared with paroxetine-treated patients” value in data set [6] (day 7, full cohort) is “significantly greater improvement”. The “HDRS scores, improvement of ε4 carriers compared with noncarriers” value in data set [6] (day 14, Caucasian patients) is on record as “greater improvement”. Besides, in data set [6] (setting [8]), the “mean HDRS-17 scores, mirtazapine compared with paroxetine” value is given as “significantly lower” and the “mean HDRS-21 scores, mirtazapine compared with paroxetine” value is on record as “significantly lower”. In addition, the “percentage of ε4 carriers responding to medication treatment (50% reduction in HDRS-17, HDRS-21, HDRS-17 remission, 50% reduction in GDS), mirtazapine compared with paroxetine” value in data set [6] (day 14, Caucasian subjects) is “greater”. Further, in data set [6] (day 14, full cohort), the “improvement in HDRS-17 scores, mirtazapine-treated compared with paroxetine-treated patients” value is on record as “Significantly greater improvement”; the “improvement in HDRS-21 scores, mirtazapine-treated compared with paroxetine-treated patients” value is recorded as “Significantly greater improvement”; the “HDRS-21 scores, ε4 carriers compared with those without an ε4 allele” value is reported as “significantly lower scores”; the “HDRS-17 scores, ε4 carriers compared with those without an ε4 allele” value is recorded as “significantly lower scores”. The “HDRS-21 50% responders” value in data set [6] (day 14, full cohort) came out at 48%. Besides, the “HDRS-17 50% responders, ε4 carriers compared with those without an ε4 allele” value in data set [6] (day 14, full cohort, p=0.049) is listed as “significantly more”. In data set [6] (setting [7]), this compound registered an HDRS-17 remitters of 28%. In addition, the HDRS-17 remitters in data set [6] (day 14, patients without an ε4 allele, full cohort) is on record as 7.1%. In data set [6], the “rate and onset of antidepressant response, mirtazapine compared with paroxetine” value is on record as “higher rate of antidepressant response”.
